According to PubChem BioAssay AID264 (DTP/NCI, 2004):
Records with an inconclusive call do not appear.

Tested on: nude mice, LX-1 lung xenograft intrarenal, tumor weight T/C
Experiment: NCI In Vivo Anticancer Drug Screen. Data for tumor model Human Lung LX-1 Xenograft (intrarenal inoculation) in NU/NU Swiss (nude) mice
Settings: endpoint: mean tumor weight change, higher = larger tumour
Outline: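 Tumor-bearing mice receive test compound or vehicle; tumor size is then measured in each group. The treated value is divided by the vehicle value to give T/C.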

[1] = dose: 200.0 mg/kg/injection, schedule: Q04DX003 (sc), vehicle: saline with Tween-80
[2] = dose: 5.0 mg/kg/injection, schedule: Q04DX003 (sc), vehicle: Klucel (hydroxypropylcellulose) (HPC)
[3] = dose: 40.0 mg/kg/injection, schedule: Q04DX003 (sc), vehicle: Klucel (hydroxypropylcellulose) (HPC)
[4] = dose: 100.0 mg/kg/injection, schedule: Q01DX010 (sc), vehicle: Klucel (hydroxypropylcellulose) (HPC)
[5] = dose: 75.0 mg/kg/injection, schedule: Q04DX003 (sc), vehicle: saline
[6] = dose: 150.0 mg/kg/injection, schedule: Q04DX003 (sc), vehicle: saline
[7] = dose: 300.0 mg/kg/injection, schedule: Q04DX003 (sc), vehicle: saline
[8] = dose: 100.0 mg/kg/injection, schedule: Q01DX010 (sc), vehicle: saline with Tween-80
[9] = dose: 200.0 mg/kg/injection, schedule: Q01DX010 (sc), vehicle: saline with Tween-80
[10] = dose: 400.0 mg/kg/injection, schedule: Q01DX010 (sc), vehicle: saline with Tween-80

With `O=C1[C@H]2CCC[C@H]2[C@H]2CCC[C@@H]12` the T/C [1] was 166 % of control, the T/C (dose: 800.0 mg/kg/injection, schedule: Q04DX003 (sc), vehicle: saline with Tween-80) was 120 % of control and the T/C (dose: 1600.0 mg/kg/injection, schedule: Q04DX003 (sc), vehicle: saline with Tween-80) was 98 % of control.
In the case of `COC1C(C)OC(OC2CC(C)(O)Cc3cc4c(c(O)c32)C(=O)c2c(O)cc3c(c2C4=O)OC2OC3(C)C(O)C(N(C)C)C2O)C(OC)C1(C)OC` (stereo not given), the T/C [2] was 118 % of control, the T/C (dose: 20.0 mg/kg/injection, schedule: Q04DX003 (sc), vehicle: Klucel (hydroxypropylcellulose) (HPC)) was 60 % of control and the T/C [3] was 98 % of control.
For `Cc1ccc2c(c1)N=C(Nc1ccccc1)N=S2(C)=O` (stereo not given), the T/C (dose: 100.0 mg/kg/injection, schedule: Q04DX003 (sc), vehicle: saline with Tween-80) was 101 % of control, the T/C [1] was 90 % of control and the T/C (dose: 400.0 mg/kg/injection, schedule: Q04DX003 (sc), vehicle: saline with Tween-80) was 97 % of control.
For `CC(=O)OCC1OC(OC2=C(CC=C(C)C)C(=O)c3ccccc3C2=O)C(OC(C)=O)C(OC(C)=O)C1OC(C)=O` (stereo not given), the T/C (dose: 12.5 mg/kg/injection, schedule: Q01DX010 (sc), vehicle: Klucel (hydroxypropylcellulose) (HPC)) was 61 % of control, the T/C (dose: 25.0 mg/kg/injection, schedule: Q01DX010 (sc), vehicle: Klucel (hydroxypropylcellulose) (HPC)) was 119 % of control and the T/C (dose: 50.0 mg/kg/injection, schedule: Q01DX010 (sc), vehicle: Klucel (hydroxypropylcellulose) (HPC)) was 97 % of control. For the same compound, the T/C [4] was 83 % of control.
With `CCCCCCCC(=O)N/N=C(\CO)[C@]1(O)Cc2c(O)c3c(c(O)c2[C@@H](OC2CC(N)C(O)C(C)O2)C1)C(=O)c1c(OC)cccc1C3=O` (stereo not given in full) the T/C (dose: 12.5 mg/kg/injection, schedule: Q01DX010 (sc), vehicle: water) was 40 % of control, the T/C (dose: 25.0 mg/kg/injection, schedule: Q01DX010 (sc), vehicle: water) was 63 % of control and the T/C (dose: 50.0 mg/kg/injection, schedule: Q01DX010 (sc), vehicle: water) was 24 % of control.
For `CC[C@]1(O)C[C@H]2CN(CCc3c([nH]c4ccccc34)[C@@](C(=O)OC)(c3cc4c(cc3OC)N(C=O)[C@H]3[C@@](O)(C(=O)OC)[C@H](OC(C)=O)[C@]5(CC)C=CCN6CC[C@]43[C@@H]65)C2)C1`, the T/C (dose: 0.13 mg/kg/injection, schedule: Q01DX010 (sc), vehicle: saline) was 69 % of control, the T/C (dose: 0.25 mg/kg/injection, schedule: Q01DX010 (sc), vehicle: saline) was 102 % of control and the T/C (dose: 0.5 mg/kg/injection, schedule: Q01DX010 (sc), vehicle: saline) was 1 % of control.
`C[C@@]1(CO)[C@H](O)CC[C@@]2(C)[C@H]1CC[C@H]1C[C@@H]3C[C@@]12CC[C@@]3(O)COC(=O)CN` was tested, and the T/C (dose: 133.0 mg/kg/injection, schedule: Q01DX010 (sc), vehicle: saline + alcohol) was 101 % of control, the T/C (dose: 200.0 mg/kg/injection, schedule: Q01DX010 (sc), vehicle: saline + alcohol) was 106 % of control and the T/C (dose: 62.5 micrograms/kg/injection, schedule: Q01DX010 (sc), vehicle: saline + alcohol) was 102 % of control. For the same compound, the T/C (dose: 500.0 micrograms/kg/injection, schedule: Q01DX010 (sc), vehicle: saline + alcohol) was 115 % of control.
In the case of `COc1cc(C)c2c(c1C=O)Oc1c(c(C)c(O)c3c1C(O)OC3=O)OC2=O` (stereo not given), the T/C (dose: 12.5 mg/kg/injection, schedule: Q01DX010 (sc), vehicle: saline) was 95 % of control, the T/C (dose: 25.0 mg/kg/injection, schedule: Q01DX010 (sc), vehicle: saline) was 103 % of control and the T/C (dose: 50.0 mg/kg/injection, schedule: Q01DX010 (sc), vehicle: saline) was 59 % of control. For the same compound, the T/C (dose: 100.0 mg/kg/injection, schedule: Q01DX010 (sc), vehicle: saline) was 32 % of control.
For `CC(C)=CC(=O)OC1C2C(C)=CC(=O)C(O)C2(C)C2C3(O)OCC24C(CC(=O)OC14)C(C)C3O` (stereo not given), the T/C (dose: 1.25 mg/kg/injection, schedule: Q04DX003 (sc), vehicle: distilled water + Tween-80) was 92 % of control and the T/C (dose: 2.5 mg/kg/injection, schedule: Q04DX003 (sc), vehicle: distilled water + Tween-80) was 90 % of control.
For `O=C(O)c1cc(Cc2ccc(O)c(C(=O)O)c2)ccc1O` (tested in a mixture with another compound), the T/C (dose: 300.0 mg/kg/injection, schedule: Q04DX003 (sc), vehicle: Klucel (hydroxypropylcellulose) (HPC)) was 89 % of control, the T/C (dose: 600.0 mg/kg/injection, schedule: Q04DX003 (sc), vehicle: Klucel (hydroxypropylcellulose) (HPC)) was 64 % of control and the T/C (dose: 1200.0 mg/kg/injection, schedule: Q04DX003 (sc), vehicle: Klucel (hydroxypropylcellulose) (HPC)) was 91 % of control. The T/C (dose: 2400.0 mg/kg/injection, schedule: Q04DX003 (sc), vehicle: Klucel (hydroxypropylcellulose) (HPC)) was 68 % of control.
`COC1C(OC(=O)/C=C/C=C/C=C/C=C/C(=O)O)CCC2(CO2)C1C1(C)OC1CC=C(C)C` (stereo not given) was tested, and the T/C [5] was 76 % of control, the T/C [6] was 81 % of control and the T/C [7] was 75 % of control. For the same compound, the T/C (dose: 600.0 mg/kg/injection, schedule: Q04DX003 (sc), vehicle: saline) was 66 % of control.
With `CC(C)=CCNc1ncnc2c1ncn2C1OC(CO)C(O)C1O` (stereo not given) the T/C (dose: 200.0 mg/kg/injection, schedule: Q04DX003 (sc), vehicle: suspension in saline) was 93 % of control, the T/C (dose: 400.0 mg/kg/injection, schedule: Q04DX003 (sc), vehicle: suspension in saline) was 112 % of control and the T/C (dose: 800.0 mg/kg/injection, schedule: Q04DX003 (sc), vehicle: suspension in saline) was 88 % of control.
With `ClCCCCCCCCCCc1ccccc1` the T/C [4] was 260 % of control, the T/C (dose: 200.0 mg/kg/injection, schedule: Q01DX010 (sc), vehicle: Klucel (hydroxypropylcellulose) (HPC)) was 94 % of control and the T/C (dose: 400.0 mg/kg/injection, schedule: Q01DX010 (sc), vehicle: Klucel (hydroxypropylcellulose) (HPC)) was 71 % of control. For the same compound, the T/C (dose: 800.0 mg/kg/injection, schedule: Q01DX010 (sc), vehicle: Klucel (hydroxypropylcellulose) (HPC)) was 52 % of control.
`Cc1cc(NCCCCCCNc2cc(C)nc3cc(N(C)C)ccc23)c2ccc(N(C)C)cc2n1` was tested, and the T/C (dose: 75.0 mg/kg/injection, schedule: Q04DX003 (sc), vehicle: distilled water + Tween-80 + alcohol) was 46 % of control and the T/C (dose: 150.0 mg/kg/injection, schedule: Q04DX003 (sc), vehicle: distilled water + Tween-80 + alcohol) was 44 % of control.
In the case of `CONc1ccn(C2OC(CO)C(O)C2O)c(=O)n1` (stereo not given), the T/C [7] was 62 % of control.
For `Oc1ccc(CCl)c2cccnc12`, the T/C [5] was 91 % of control, the T/C [6] was 78 % of control and the T/C [7] was 46 % of control.
In the case of `C=C1C(=O)O[C@@H]2[C@H](O)[C@@H](C)[C@@H]3C=CC(=O)[C@@]3(C)[C@H](OC(=O)C=C(C)C)[C@H]12`, the T/C (dose: 9.38 mg/kg/injection, schedule: Q04DX003 (sc), vehicle: saline with Tween-80) was 95 % of control, the T/C (dose: 18.75 mg/kg/injection, schedule: Q04DX003 (sc), vehicle: saline with Tween-80) was 101 % of control and the T/C (dose: 37.5 mg/kg/injection, schedule: Q04DX003 (sc), vehicle: saline with Tween-80) was 100 % of control.
With `CCCCOC(=O)/C=C(\Br)C(=O)OCCCC` the T/C [8] was 166 % of control, the T/C [9] was 281 % of control and the T/C [10] was 251 % of control.
With `C/C=C/c1cc2n(c1)C(=O)c1cc(OC3OC(C)C(NC)C(C)(O)C3O)c(C)c(O)c1NC2O` (stereo not given) the T/C (dose: 50.0 micrograms/kg/injection, schedule: Q04DX003 (sc), vehicle: saline) was 54 % of control, the T/C (dose: 200.0 micrograms/kg/injection, schedule: Q04DX003 (sc), vehicle: saline) was 92 % of control and the T/C (dose: 400.0 micrograms/kg/injection, schedule: Q04DX003 (sc), vehicle: saline) was 91 % of control.
In the case of `NC(Cc1ccc(N(CCCl)CCCl)cc1)C(=O)O` (stereo not given), the T/C (dose: 2.5 mg/kg/injection, schedule: Q04DX003 (sc), vehicle: Klucel (hydroxypropylcellulose) (HPC)) was 75 % of control, the T/C [2] was 105 % of control and the T/C [3] was 22 % of control.
For `CC1=C(C)C(=O)O[C@@H]([C@](C)(O)[C@]2(O)CC[C@@]3(O)[C@@H]4C[C@H]5O[C@]56CC=CC(=O)[C@]6(C)[C@H]4CC[C@]23C)C1`, the T/C (dose: 150.0 mg/kg/injection, schedule: Q04DX003 (sc), vehicle: suspension in saline) was 112 % of control, the T/C (dose: 300.0 mg/kg/injection, schedule: Q04DX003 (sc), vehicle: suspension in saline) was 84 % of control and the T/C (dose: 600.0 mg/kg/injection, schedule: Q04DX003 (sc), vehicle: suspension in saline) was 46 % of control. For the same compound, the T/C (dose: 1200.0 mg/kg/injection, schedule: Q04DX003 (sc), vehicle: suspension in saline) was 81 % of control.
In the case of `Cc1cc(O)c(N=Nc2ccc(C(=O)O)cc2)cc1C`, the T/C [8] was 77 % of control, the T/C [9] was 67 % of control and the T/C [10] was 62 % of control. The T/C (dose: 800.0 mg/kg/injection, schedule: Q01DX010 (sc), vehicle: saline with Tween-80) was 59 % of control.
